Data taken from patent US10259847B2, “Beta-hairpin peptidomimetics” (POLYPHOR AG, priority 2014, dated 2019).
Read-outs that look alike come from different tables or passages of the source. Where a SMILES comes first, the peptide text is derived from it. Bridges are numbered along the chain shown (N, C = ends). [ ]: non-standard residue; d: D form. Tle = CC(C)(C)[C@H](N)C(=O)O; dDab = NCC[C@@H](N)C(=O)O; Orn = NCCC[C@H](N)C(=O)O; Dab = NCC[C@H](N)C(=O)O; dAze = O=C(O)[C@H]1CCN1; Dap = NC[C@H](N)C(=O)O

Legend:
Format in all cases: cell-based
[1] = test system: human red blood cells (hRBC); experiment: Hemolysis of human red blood cells
Description: (§1) Stock solutions were kept at +4° C., light protected.
Percent hemolysis was calculated as follows: (OD540peptide/OD540H2O)×100%.

[2] = test system: Escherichia coli ATCC 25922
Description: as §1
(§2) The selective antimicrobial activities of the peptides were determined in 96-well plates (Greiner, polystyrene) by the standard NCCLS broth microdilution method (National Committee for Clinical Laboratory Standards 1993. Methods for dilution antimicrobial susceptibility tests for bacteria that grow aerobically, 3rd ed. Approved standard M7-A6; National Committee for Clinical laboratory standards, Wayne, Pa.) with slight modifications. Inocula of the microorganisms were diluted into Mueller-Hinton II (MH, cation adjusted) broth and compared with a 0.5 McFarland standard to give appr. 10^6 colony forming units (CFU)/mL. Aliquots (90 μl) of inoculate were added to 10 μl of MH broth+P-80 (Polysorbate 80, 0.002% final concentration) containing the peptide in serial two-fold dilutions. The following microorganisms were used to determine antibiotic selectivity of the peptides: Escherichia coli ATCC 25922, Klebsiella pneumoniae ATCC 13883 and Acinetobacter baumannii DSM 30008.

[3] = test system: Klebsiella pneumoniae ATCC 13883
Description: as §1, §2

[4] = test system: Acinetobacter baumannii DSM 30008
Description: as §1, §2

[5] = Mueller-Hinton broth II, 0.002% P-80, 18-20 hours at 35° C.

SMILES	Hemolysis at 100 μg/mL ([1]; red cells of human, 1 h, 100) [%]	Escherichia coli ATCC 25922 MIC ([2]; ATCC 25922) [µg/mL]	Klebsiella pneumoniae ATCC 13883 MIC ([3]; ATCC 13883) [µg/mL]	Acinetobacter baumannii DSM 30008 MIC ([4]; DSM 30008) [µg/mL]	Hemolysis at 100 μg/mL ([1]; 100 μg/mL, 20% hRBC (v/v), 1 h at 37° C.) [%]	Escherichia coli ATCC 25922 MIC [2, 5] [µg/mL]	Klebsiella pneumoniae ATCC 13883 MIC [3, 5] [µg/mL]	Acinetobacter baumannii DSM 30008 MIC [4, 5] [µg/mL]
CC(C)[C@@H]1NC(=O)[C@@H]2CCCN2C(=O)[C@H]2CCN2C(=O)[C@H]([C@@H](C)O)NC(=O)[C@H](CO)NC(=O)[C@H](C(C)(C)C)NC(=O)[C@H](CCN)NC(=O)[C@H](Cc2c[nH]c3ccccc23)NC(=O)[C@H](CCN)NC(=O)[C@@H](CCN)NC(=O)[C@H](CN)NC(=O)[C@H](CCN)NC(=O)[C@H](Cc2ccc(O)cc2)NC(=O)[C@H](CN)NC1=O [Example 41, cyclo(-Val-Dap-Tyr-Dab-Dap-^DDab-Dab-Trp-Dab-tBuGly-Ser-Thr-^DAzt-Pro-)] (cyclo([Dab][Dap][dDab][Dab]W[Dab][Tle]ST[dAze]PV[Dap]Y))	1	0.5	0.25	1				
CC(C)[C@@H]1NC(=O)[C@@H]2CCCN2C(=O)[C@H]2CCCN2C(=O)[C@H](CO)NC(=O)[C@H]2CSSC[C@@H](NC1=O)C(=O)N[C@@H](Cc1ccc(O)cc1)C(=O)N[C@@H](CCN)C(=O)N[C@@H](CN)C(=O)N[C@H](CCN)C(=O)N[C@@H](CCN)C(=O)N[C@@H](Cc1c[nH]c3ccccc13)C(=O)N[C@@H](CCN)C(=O)N[C@@H](C(C)(C)C)C(=O)N2 [Example 38, cyclo(-Val-^DCys-Tyr-Dab-Dap-^DDab-Dab-Trp-Dab-tBuGly-^DCys-Ser-^DPro-Pro-)] (cyclo(V[dC]Y[Dab][Dap][dDab][Dab]W[Dab][Tle][dC]S[dP]P); disulfide 2-11)					2	4	2	2
CC(C)C[C@@H]1NC(=O)[C@@H]2CCCN2C(=O)[C@H]2CCCN2C(=O)[C@H](CO)NC(=O)[C@@H]2CCNC(=O)CC[C@H](NC1=O)C(=O)N[C@@H](Cc1ccc(O)cc1)C(=O)N[C@@H](CCN)C(=O)N[C@@H](CCCN)C(=O)N[C@H](CCN)C(=O)N[C@@H](CCN)C(=O)N[C@@H](Cc1c[nH]c3ccccc13)C(=O)N[C@@H](CCN)C(=O)N[C@@H](C(C)(C)C)C(=O)N2 [Example 19, cyclo(-Leu-Glu-Tyr-Dab-Orn-^DDab-Dab-Trp-Dab-tBuGly-Dab-Ser-^DPro-Pro-)] (HELM PEPTIDE1{L.E.Y.[Dab].[Orn].[NCC[C@@H](N[*:1])C(=O)[*:2]].[Dab].W.[Dab].[CC(C)(C)[C@H](N[*:1])C(=O)[*:2]].[Dab].S.[dP].P}$PEPTIDE1,PEPTIDE1,2:R3-11:R3|PEPTIDE1,PEPTIDE1,1:R1-14:R2$$$V2.0)	0	3	8	3				
CC(C)C[C@@H]1NC(=O)[C@H](CCN)NC(=O)[C@H]2CCCN2C(=O)[C@H](C(C)C)NC(=O)[C@@H]2CSSC[C@H](NC1=O)C(=O)N[C@@H](Cc1ccc(O)cc1)C(=O)N[C@@H](C)C(=O)N[C@@H](CCCN)C(=O)N[C@H](CCN)C(=O)N[C@@H](CCN)C(=O)N[C@@H](Cc1c[nH]c3ccccc13)C(=O)N[C@@H](C)C(=O)N[C@@H](C(C)C)C(=O)N2 [Example 5, cyclo(-Leu-Cys-Tyr-Ala-Orn-^DDab-Dab-Trp-Ala-Val-Cys-Val-^DPro-Dab-)] (HELM PEPTIDE1{A.[Orn].[NCC[C@@H](N[*:1])C(=O)[*:2]].[Dab].W.A.V.C.V.[dP].[Dab].L.C.Y}$PEPTIDE1,PEPTIDE1,8:R3-13:R3|PEPTIDE1,PEPTIDE1,1:R1-14:R2$$$V2.0)	3	2	2	1				
CC(C)(C)[C@@H]1NC(=O)[C@H](CCN)NC(=O)[C@H](Cc2c[nH]c3ccccc23)NC(=O)[C@H](CCN)NC(=O)[C@@H](CCN)NC(=O)[C@H](CCCN)NC(=O)[C@H](CCCNC(=N)N)NC(=O)[C@H](Cc2ccc(O)cc2)NC(=O)[C@@H]2CCNC(=O)C[C@H](NC1=O)C(=O)N[C@@H](CO)C(=O)N1CCC[C@@H]1C(=O)N1CCC[C@H]1C(=O)N[C@@H](Cc1ccccc1)C(=O)N2 [Example 13, cyclo(-Phe-Dab-Tyr-Arg-Orn-^DDab-Dab-Trp-Dab-tBuGly-Asp-Ser-^DPro-Pro-)] (HELM PEPTIDE1{F.[Dab].Y.R.[Orn].[NCC[C@@H](N[*:1])C(=O)[*:2]].[Dab].W.[Dab].[CC(C)(C)[C@H](N[*:1])C(=O)[*:2]].D.S.[dP].P}$PEPTIDE1,PEPTIDE1,2:R3-11:R3|PEPTIDE1,PEPTIDE1,1:R1-14:R2$$$V2.0)	1	0.25	0.5	1				
CC(C)C[C@@H]1NC(=O)[C@@H]2CCCN2C(=O)[C@H]2CCCN2C(=O)[C@H](CO)NC(=O)[C@@H]2CCC(=O)NC[C@H](NC1=O)C(=O)N[C@@H](Cc1ccc(O)cc1)C(=O)N[C@@H](CCN)C(=O)N[C@@H](CCCN)C(=O)N[C@@H](CCN)C(=O)N[C@@H](CCN)C(=O)N[C@@H](Cc1c[nH]c3ccccc13)C(=O)N[C@@H](CCN)C(=O)N[C@@H](C(C)(C)C)C(=O)N2 [Example 26, cyclo(-Leu-Dap-Tyr-Dab-Orn-Dab-Dab-Trp-Dab-tBuGly-Glu-Ser-^DPro-Pro-)] (HELM PEPTIDE1{L.[O=C([C@H](CN[*:3])N[*:1])[*:2]].Y.[Dab].[Orn].[Dab].[Dab].W.[Dab].[CC(C)(C)[C@H](N[*:1])C(=O)[*:2]].E.S.[dP].P}$PEPTIDE1,PEPTIDE1,2:R3-11:R3|PEPTIDE1,PEPTIDE1,1:R1-14:R2$$$V2.0)	0	4	1	4				
CC(C)C[C@@H]1NC(=O)[C@H](CCCN)NC(=O)[C@H]2CCCN2C(=O)[C@H](C(C)C)NC(=O)[C@@H]2CSSC[C@H](NC1=O)C(=O)N[C@@H](Cc1ccc(O)cc1)C(=O)N[C@@H](C)C(=O)N[C@@H](CCCN)C(=O)N[C@H](CCN)C(=O)N[C@@H](CCN)C(=O)N[C@@H](Cc1c[nH]c3ccccc13)C(=O)N[C@@H](C)C(=O)N[C@@H](C(C)C)C(=O)N2 [Example 4, cyclo(-Leu-Cys-Tyr-Ala-Orn-^DDab-Dab-Trp-Ala-Val-Cys-Val-^DPro-Orn-)] (HELM PEPTIDE1{A.[Orn].[NCC[C@@H](N[*:1])C(=O)[*:2]].[Dab].W.A.V.C.V.[dP].[Orn].L.C.Y}$PEPTIDE1,PEPTIDE1,8:R3-13:R3|PEPTIDE1,PEPTIDE1,1:R1-14:R2$$$V2.0)	2.5	2	4	2				
CC(C)C[C@@H]1NC(=O)[C@@H]2CCCN2C(=O)[C@H]2CCCN2C(=O)[C@H](CO)NC(=O)[C@@H]2CCC(=O)NCC[C@H](NC1=O)C(=O)N[C@@H](Cc1ccc(O)cc1)C(=O)N[C@@H](CCN)C(=O)N[C@@H](CCCN)C(=O)N[C@H](CCN)C(=O)N[C@@H](CCN)C(=O)N[C@@H](Cc1c[nH]c3ccccc13)C(=O)N[C@@H](CCN)C(=O)N[C@@H](C(C)(C)C)C(=O)N2 [Example 30, cyclo(-Leu-Dab-Tyr-Dab-Orn-^DDab-Dab-Trp-Dab-tBuGly-Glu-Ser-^DPro-Pro-)] (HELM PEPTIDE1{L.[Dab].Y.[Dab].[Orn].[NCC[C@@H](N[*:1])C(=O)[*:2]].[Dab].W.[Dab].[CC(C)(C)[C@H](N[*:1])C(=O)[*:2]].E.S.[dP].P}$PEPTIDE1,PEPTIDE1,2:R3-11:R3|PEPTIDE1,PEPTIDE1,1:R1-14:R2$$$V2.0)	0.5	1	2	1				
CC(C)C[C@@H]1NC(=O)[C@@H]2CCCN2C(=O)[C@H]2CCCN2C(=O)[C@H](CO)NC(=O)[C@@H]2CNC(=O)CC[C@H](NC1=O)C(=O)N[C@@H](Cc1ccc(O)cc1)C(=O)N[C@@H](CCN)C(=O)N[C@@H](CCCN)C(=O)N[C@H](CCN)C(=O)N[C@@H](CCN)C(=O)N[C@@H](Cc1c[nH]c3ccccc13)C(=O)N[C@@H](CCN)C(=O)N[C@@H](C(C)(C)C)C(=O)N2 [Example 34, cyclo(-Leu-Glu-Tyr-Dab-Orn-^DDab-Dab-Trp-Dab-tBuGly-Dap-Ser-^DPro-Pro-)] (cyclo(LEY[Dab][Orn][dDab][Dab]W[Dab][Tle][Dap]S[dP]P); lactam 2-11)	1	0.5	0.5	1				
CC[C@H](C)[C@@H]1NC(=O)[C@@H]2CCCN2C(=O)[C@H]2CCCN2C(=O)[C@H](Cc2ccc(O)cc2)NC(=O)[C@@H]2CSSC[C@H](NC1=O)C(=O)N[C@@H](Cc1ccc(O)cc1)C(=O)N[C@@H](CCN)C(=O)N[C@@H](CCCN)C(=O)N[C@H](CCN)C(=O)N[C@@H](CCN)C(=O)N[C@@H](CC(C)C)C(=O)N[C@@H](CCN)C(=O)N[C@@H](C(C)C)C(=O)N2 [Example 7, cyclo(-Ile-Cys-Tyr-Dab-Orn-^DDab-Dab-Leu-Dab-Val-Cys-Tyr-^DPro-Pro-)] (HELM PEPTIDE1{I.C.Y.[Dab].[Orn].[NCC[C@@H](N[*:1])C(=O)[*:2]].[Dab].L.[Dab].V.C.Y.[dP].P}$PEPTIDE1,PEPTIDE1,2:R3-11:R3|PEPTIDE1,PEPTIDE1,1:R1-14:R2$$$V2.0)	11	0.5	0.25	1				
